These compounds were tested against HDM2 protein (Homo sapiens, UniProt Q00987) (assay: fluorescence polarization screening assay (FP IC50)). Settings: class symbols.
Format: binding
Protocol: The compounds were evaluated to determine activity at the HDM2 protein by known methods such as the fluorescence polarization screening assay that measures the inhibitory concentration that achieves 50% of maximal activity (FP IC50) and the dissociation constant for inhibitor binding (FP Ki). [Zhang et al., J. Analytical Biochemistry 331: 138-146 (2004)].

HDM2 protein, sequence (Q00987 whole entry): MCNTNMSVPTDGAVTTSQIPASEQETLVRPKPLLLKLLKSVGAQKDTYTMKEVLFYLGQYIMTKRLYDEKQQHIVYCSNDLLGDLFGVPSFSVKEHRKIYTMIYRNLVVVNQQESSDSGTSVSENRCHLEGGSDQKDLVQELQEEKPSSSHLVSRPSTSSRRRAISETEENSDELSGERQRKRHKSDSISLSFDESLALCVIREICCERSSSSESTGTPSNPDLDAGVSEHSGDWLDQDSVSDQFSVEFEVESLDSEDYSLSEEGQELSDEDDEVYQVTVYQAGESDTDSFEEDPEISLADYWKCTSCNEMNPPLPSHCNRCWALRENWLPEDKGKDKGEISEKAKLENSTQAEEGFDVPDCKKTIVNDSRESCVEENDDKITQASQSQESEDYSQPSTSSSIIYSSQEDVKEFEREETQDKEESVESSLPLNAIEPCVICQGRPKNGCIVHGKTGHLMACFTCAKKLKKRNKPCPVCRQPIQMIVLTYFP

IC50 [nM]	Structure (SMILES)
1 to 100	CCC[C@H]1N(C(=O)c2ncccc2C(F)(F)F)CCC[C@@]1(Oc1csc(C(F)(F)F)c1)C(=O)N1CCc2cc(Br)ccc2C1CC(=O)O (stereo partly drawn) [Compound A70, (6-bromo-2-{[(2R,3S)-2-propyl-1-{[3-(trifluoromethyl)pyridin-2-yl]carbonyl}-3-{[5-(trifluoromethyl)thiophen-3-yl]oxy}piperidin-3-yl]carbonyl}-1,2,3,4-tetrahydroisoquinolin-1-yl)acetic acid]
1 to 100	CCC[C@H]1N(C(=O)c2ncccc2C(F)(F)F)CCC[C@@]1(Oc1csc(C(F)(F)F)c1)C(=O)N1CCc2cc(Cl)ccc2C1CC(=O)O (stereo partly drawn) [Compound A53, (6-chloro-2-{[(2R,3S)-2-propyl-1-{[3-(trifluoromethyl)pyridin-2-yl]carbonyl}-3-{[5-(trifluoromethyl)thiophen-3-yl]oxy}piperidin-3-yl]carbonyl}-1,2,3,4-. tetrahydroisoquinolin-1-yl)acetic acid]
101 to 20000	CCC[C@H]1N(C(=O)c2ncccc2C(F)(F)F)CCC[C@@]1(Oc1csc(C(F)(F)F)c1)C(=O)N1CCc2cc(OC)ccc2C1 [Compound A47, 6-methoxy-2-{[(2R,3S)-2-propyl-1-{[3-(trifluoromethyl)pyridin-2-yl]carbonyl}-3-{[5-(trifluoromethyl)thiophen-3-yl]oxy}piperidin-3-yl]carbonyl}-1,2,3,4-tetrahydroisoquinoline]
101 to 20000	CCC[C@H]1N(C(=O)c2ncccc2C(F)(F)F)CCC[C@@]1(Oc1csc(C(F)(F)F)c1)C(=O)N1CCc2ccsc2C1CC(C)(C)C(=O)OCC (stereo partly drawn) [Compound A28, ethyl 2,2-dimethyl-3-(6-{[(2R,3S)-2-propyl-1-{[3-(trifluoromethyl)pyridin-2-yl]carbonyl}-3-{[5-(trifluoromethyl)thiophen-3-yl]oxy}piperidin-3-yl]carbonyl}-4,5,6,7-tetrahydrothieno[2,3-c]pyridin-7-yl)propanoate]
1 to 100	CCC[C@H]1N(C(=O)c2ncccc2C(F)(F)F)CCC[C@@]1(Oc1csc(C(F)(F)F)c1)C(=O)N1Cc2cc(F)c(F)cc2C[C@H]1CCC(=O)O [Compound A157, 3-[(3R)-6,7-difluoro-2-{[(2R,3S)-2-propyl-1-{[3-(trifluoromethyl)pyridin-2-yl]carbonyl}-3-{[5-(trifluoromethyl)thiophen-3-yl]oxy}piperidin-3-yl]carbonyl}-1,2,3,4-tetrahydroisoquinolin-3-yl]propanoic acid]
1 to 100	CCC[C@H]1N(C(=O)c2ncccc2C(F)(F)F)CCC[C@@]1(Oc1csc(C(F)(F)F)c1)C(=O)N1CCc2sc(Cl)cc2C1CC(C)(C)C(=O)O (stereo partly drawn) [Compound A25, 3-(2-chloro-5-{[(2R,3S)-2-propyl-1-{[3-(trifluoromethyl)pyridin-2-yl]carbonyl}-3-{[5-(trifluoromethyl)thiophen-3-yl]oxy}piperidin-3-yl]carbonyl}-4,5,6,7-tetrahydrothieno[3,2-c]pyridin-4-yl)-2,2-dimethylpropanoic acid]
1 to 100	CCC[C@H]1N(C(=O)c2ncccc2C(F)(F)F)CCC[C@@]1(Oc1csc(C(F)(F)F)c1)C(=O)N1Cc2ccc(F)cc2C[C@@H]1C(=O)O [Compound A123, (3R)-6-fluoro-2-{[(2R,3S)-2-propyl-1-{[3-(trifluoromethyl)pyridin-2-yl]carbonyl}-3-{[5-(trifluoromethyl)thiophen-3-yl]oxy}piperidin-3-yl]carbonyl}-1,2,3,4-tetrahydroisoquinoline-3-carboxylic acid]
101 to 20000	CCC[C@H]1N(C(=O)c2ncccc2C(F)(F)F)CCC[C@@]1(Oc1csc(C(F)(F)F)c1)C(=O)N1CCc2c(ccc(Cl)c2Cl)C1 [Compound A86, 5,6-dichloro-2-{[(2R,3S)-2-propyl-1-{[3-(trifluoromethyl)pyridin-2-yl]carbonyl}-3-{[5-(trifluoromethyl)thiophen-3-yl]oxy}piperidin-3-yl]carbonyl}-1,2,3,4-tetrahydroisoquinoline]
1 to 100	CCC[C@H]1N(C(=O)c2ncccc2C(F)(F)F)CCC[C@@]1(Oc1csc(C(F)(F)F)c1)C(=O)N1Cc2ccc(F)cc2C[C@@H]1CCCCC(=O)O [Compound A131, 5-[(3S)-6-fluoro-2-{[(2R,3S)-2-propyl-1-{[3-(trifluoromethyl)pyridin-2-yl]carbonyl}-3-{[5-(trifluoromethyl)thiophen-3-yl]oxy}piperidin-3-yl]carbonyl}-1,2,3,4-tetrahydroisoquinolin-3-yl]pentanoic acid]
101 to 20000	CCC[C@H]1N(C(=O)c2ncccc2C(F)(F)F)CCC[C@@]1(Oc1csc(C(F)(F)F)c1)C(=O)N1CCc2cc(-c3ccsc3)ccc2C1 [Compound A66, 2-{[(2R,3S)-2-propyl-1-{[3-(trifluoromethyl)pyridin-2-yl]carbonyl}-3-{[5-(trifluoromethyl)thiophen-3-yl]oxy}piperidin-3-yl]carbonyl}-6-thiophen-3-yl-1,2,3,4-tetrahydroisoquinoline]
1 to 100	NC(=O)C1c2ccc(Cl)cc2CCN1C(=O)[C@]1(Oc2csc(C(F)(F)F)c2)CCCN(C(=O)c2ncccc2C(F)(F)F)[C@@H]1CC(=O)O (stereo partly drawn) [Compound A97, [(2R,3S)-3-[(1-carbamoyl-6-chloro-3,4-dihydroisoquinolin-2(1H)-yl)carbonyl]-1-{[3-(trifluoromethyl)pyridin-2-yl]carbonyl}-3-{[5-(trifluoromethyl)thiophen-3-yl]oxy}piperidin-2-yl]acetic acid]
1 to 100	CCC[C@H]1N(C(=O)c2ncccc2C(F)(F)F)CCC[C@@]1(Oc1csc(C(F)(F)F)c1)C(=O)N1Cc2ccc(F)cc2C[C@@H]1CCCC(=O)O [Compound A146, 4-[(3S)-6-fluoro-2-{[(2R,3S)-2-propyl-1-{[3-(trifluoromethyl)pyridin-2-yl]carbonyl}-3-{[5-(trifluoromethyl)thiophen-3-yl]oxy}piperidin-3-yl]carbonyl}-1,2,3,4-tetrahydroisoquinolin-3-yl]butanoic acid]
1 to 100	CCC[C@H]1N(C(=O)c2ncccc2C(F)(F)F)CCC[C@@]1(Oc1csc(C(F)(F)F)c1)C(=O)N1CCc2cc(Cl)ccc2C1CC(=O)N1CCC(O)CC1 (stereo partly drawn) [Compound A82, 1-[(6-chloro-2-{[(2R,3S)-2-propyl-1-{[3-(trifluoromethyl)pyridin-2-yl]carbonyl}-3-{[5-(trifluoromethyl)thiophen-3-yl]oxy}piperidin-3-yl]carbonyl}-1,2,3,4-tetrahydroisoquinolin-1-yl)acetyl]piperidin-4-ol]
101 to 20000	CCC[C@H]1N(C(=O)c2ncccc2C(F)(F)F)CCC[C@@]1(Oc1csc(C(F)(F)F)c1)C(=O)N1CCc2ccc(Cl)cc2C1 [Compound A139, 7-chloro-2-{[(2R,3S)-2-propyl-1-{[3-(trifluoromethyl)pyridin-2-yl]carbonyl}-3-{[5-(trifluoromethyl)thiophen-3-yl]oxy}piperidin-3-yl]carbonyl}-1,2,3,4-tetrahydroisoquinoline]
1 to 100	CCC[C@H]1N(C(=O)c2ncccc2C(F)(F)F)CCC[C@@]1(Oc1csc(C(F)(F)F)c1)C(=O)N1Cc2ccc(F)cc2C[C@@H]1CCC(=O)O [Compound A124, 3-[(3S)-6-fluoro-2-{[(2R,3S)-2-propyl-1-{[3-(trifluoromethyl)pyridin-2-yl]carbonyl}-3-{[5-(trifluoromethyl)thiophen-3-yl]oxy}piperidin-3-yl]carbonyl}-1,2,3,4-tetrahydroisoquinolin-3-yl]propanoic acid]
101 to 20000	CCC[C@H]1N(C(=O)c2ncccc2C(F)(F)F)CCC[C@@]1(Oc1csc(C(F)(F)F)c1)C(=O)N1CCc2cc(Cl)ccc2C1CO (stereo partly drawn) [Compound A103, (6-chloro-2-{[(2R,3S)-2-propyl-1-{[3-(trifluoromethyl)pyridin-2-yl]carbonyl}-3-{[5-(trifluoromethyl)thiophen-3-yl]oxy}piperidin-3-yl]carbonyl}-1,2,3,4-tetrahydroisoquinolin-1-yl)methanol]
1 to 100	CCC[C@H]1N(C(=O)c2ncccc2C(F)(F)F)CCC[C@@]1(Oc1csc(C(F)(F)F)c1)C(=O)N1CCc2sc(Cl)cc2C1CC(C)(C)C(=O)O (stereo partly drawn) [Compound A26, 3-(2-chloro-5-{[(2R,3S)-2-propyl-1-{[3-(trifluoromethyl)pyridin-2-yl]carbonyl}-3-{[5-(trifluoromethyl)thiophen-3-yl]oxy}piperidin-3-yl]carbonyl}-4,5,6,7-tetrahydrothieno[3,2-c]pyridin-4-yl)-2,2-dimethylpropanoic acid]
1 to 100	CCC[C@H]1N(C(=O)c2ncccc2C(F)(F)F)CCC[C@@]1(Oc1csc(C(F)(F)F)c1)C(=O)N1Cc2ccc(F)cc2C[C@@H]1C(=O)NCCO [Compound A150, (3R)-6-fluoro-N-(2-hydroxyethyl)-2-{[(2R,3S)-2-propyl-1-{[3-(trifluoromethyl)pyridin-2-yl]carbonyl}-3-{[5-(trifluoromethyl)thiophen-3-yl]oxy}piperidin-3-yl]carbonyl}-1,2,3,4-tetrahydroisoquinoline-3-carboxamide]
1 to 100	CCC[C@H]1N(C(=O)c2ncccc2C(F)(F)F)CCC[C@@]1(Oc1csc(C(F)(F)F)c1)C(=O)N1Cc2ccc(Cl)cc2C[C@@H]1C(=O)NC1CCOCC1 [Compound A166, (3R)-6-chloro-2-{[(2R,3S)-2-propyl-1-{[3-(trifluoromethyl)pyridin-2-yl]carbonyl}-3-{[5-(trifluoromethyl)thiophen-3-yl]oxy}piperidin-3-yl]carbonyl}-N-(tetrahydro-2H-pyran-4-yl)-1,2,3,4-tetrahydroisoquinoline-3-carboxamide]
101 to 20000	CCC[C@H]1N(C(=O)c2ncccc2C(F)(F)F)CCC[C@@]1(Oc1csc(C(F)(F)F)c1)C(=O)N1CCc2sc(Cl)cc2C1CCC(N)=O (stereo partly drawn) [Compound A24, 3-(2-chloro-5-{[(2R,3S)-2-propyl-1-{[3-(trifluoromethyl)pyridin-2-yl]carbonyl}-3-{[5-(trifluoromethyl)thiophen-3-yl]oxy}piperidin-3-yl]carbonyl}-4,5,6,7-tetrahydrothieno[3,2-c]pyridin-4-yl]propanamide]
